Values of other authors, collected in PubChem BioAssay AID1259409 (Chemical Carcinogenesis Research Information System (CCRIS), 2018).
Where “and” joins values, the source holds several entries; their conditions need not be identical. Equal entries are not always repeated.

System: rodent chemically induced tumor inhibition, incidence and multiplicity
Experiment: CCRIS tumor inhibitor studies

S=C=Nc1cccc2ccccc12
tumour outcome (control, treated, inhibition, significance) (Carcinogen: 2-AMINO-3-METHYLIMIDAZO[4,5-B]PYRIDINE (PHIP) [105650-23-5), Dose [Inhibitor]: DIET, Route [Inhibitor]: 400 PPM ADMINISTERED FROM 42 TO 66 D OF AGE, Species: RAT, Strain/Sex: SPRAGUE-DAWLEY/FEMALE, Target Tissue: Type of Lesion: MAMMARY, CARCINOMA, Dose [Carcinogen]: 85 MG/KG BW 8 TIMES OVER 11 D, STARTING 1 WK AFTER ANIT FEEDING (STUDY DURATION: 24 WKS)): 56.3%, 6.7%, 88.1%, p<0.001

O=C(CCC(O)c1ccccc1)c1ccccc1 (centres undefined)
tumour outcome (control, treated, inhibition, significance) (Carcinogen: 4-(METHYLNITROSAMINO)-1-(3-PYRIDYL)-1-BUTANONE, 64091-91-4, Dose [Inhibitor]: 0, 25 UMOL IN 0.1 ML CORN OIL ONCE 2 HR PRIOR TO CARCINOGEN DOSE (STUDY DURATION: 16 WK), Route [Inhibitor]: GAVAGE, Species: MOUSE, Strain/Sex: STRAIN-A/FEMALE, Target Tissue: Type of Lesion: LUNG: TUMOR, Dose [Carcinogen]: 10 UMOL IN 0.1 ML SALINE ONCE, Promoter: NONE USED): 100%, 100%, 0%, not significant

COc1ccc(O)cc1C(C)(C)C
tumour outcome (control, treated, inhibition, significance) (Carcinogen: BENZO[A]PYRENE, 50-32-8, Dose [Inhibitor]: 0.03 MMOL/G OF DIET DAILY STARTING 7 D BEFORE AND CONTINUING THROUGH 3 D AFTER CARCINOGEN TREATMENT FOLLOWED BY OBSERVAT, Route [Inhibitor]: ORAL, Species: MOUSE, Strain/Sex: ICR/FEMALE, Target Tissue: Type of Lesion: FORESTOMACH: NEOPLASM, Dose [Carcinogen]: 1 MG IN 0.2 ML CORN OIL 2/WK FOR 4 WK, Promoter: NONE USED): 94%, 60%, 36%, p<0.05 and 90%, 65%, 28%, not significant | tumour outcome (control, treated, inhibition, significance) (Carcinogen: CIPROFIBRATE, 52214-84-3, Dose [Inhibitor]: 0.5% IN DIET FOR 60 WK (STUDY DURATION: 60 WK), Route [Inhibitor]: ORAL, Species: RAT, Strain/Sex: F344/MALE, Target Tissue: Type of Lesion: LIVER: TUMOR, Dose [Carcinogen]: 10 MG/KG/BW IN DIET SIMULTANEOUSLY WITH INHIBITOR FOR 60 WK, Promoter: NONE USED): 22/25 (88%), 12/25 (48%), 45%, p<0.005
